Measured values taken from US20110250133A1, “GASTRIN […] PEPTIDE COMPOUNDS” (priority 2003, published 2011).
Where two headings read alike, the source gives them in different places. One block for each molecule: values may come before it.

Experiments:
[1] = molecular target: gastrin releasing peptide receptor (GRP-R) (human) (UniProt P30550); assay: saturation binding of carrier-added radioligand on PC-3 cells, 4 C
[2] = molecular target: gastrin releasing peptide receptor (GRP-R) (human) (UniProt P30550); assay: competition with 125I-universal ligand, receptor autoradiography on human cancer tissue
[3] = molecular target: human neuromedin-B preferring receptor (NMB-R) (human) (UniProt P28336); assay: as above
[4] = molecular target: gastrin releasing peptide receptor (GRP-R) (human) (UniProt P30550); assay: competition with 177Lu-AMBA on PC-3 cells, 4 C
[5] = molecular target: gastrin releasing peptide receptor (GRP-R) (human) (UniProt P30550); assay: competition with 67Ga-AMBA on PC-3 cells, 4 C
[6] = test system: ZR-75-1 human breast cancer cells; assay: Longterm (2-12 days) effect of 4-hydroxytamoxifen on GRP receptor binding in ZR-75-1 cells; type: cell-based
Procedure: The ZR-75-1 cells were seeded at 15K per well onto two 96-well scintiplates on the same day as 2 days study.

[7] = test system: ZR-75-1 human breast cancer cells; assay: Effect of 4-hydroxytamoxifen on GRP receptor binding and glucose uptake in ZR-75-1 cells; type: cell-based
Procedure: Method: ZR-75-1 breast cancer cell line (human ductal carcinoma with estrogen receptor) was obtained from the American Type Culture Collection (ATCC).
ZR-75-1 cells were plated on Day 0 (40 k/well 96-well PE Scintiplate). […] To determine the cell numbers and the proliferation, 100 uL of 10% CCK—F solution in DPBS (Molecular technologies) was added to the same plate, incubated for 30 min at 37° C. and the relative fluorescence (RFU) measured at 535 nm. Based on the cell numbers and the ^177Lu-binding, the Bmax (fmoles bound/million cells) was calculated.
The cell numbers were determined with CCK—F treatment as described above.

[8] = test system: BT-474 human breast cancer cells; assay: Effect of drug treatment on GRP receptor binding (177Lu-AMBA) in BT-474 cells; type: cell-based; details: BT-474; relative to untreated control; drug 0.1-1.0 μM (4-OH Tamoxifen 0.001-0.1 μM)
Procedure: BT-474 breast cancer cells (human primary invasive ductal carcinoma; ER+, PR+, amplified HER2/neu+) were obtained from the American Type Culture Collection. The growth medium for BT-474 cells is Hybri-care Medium (Cat No: 46X, ATCC) supplemented with 10% heat inactivated FBS (Hyclone, SH30070.03), 0.2% NaHCO3, and antibiotic/antimycotic “PSF-1×” (GibcoBRL, 15240-062) for a final concentration of penicillin-streptomycin (1×, 100 units/mL), and fungizone (0.25 μg/mL). […] Cells for binding experiments were plated on Day 0 at 5.6×10^4 cells/cm^2 in 96-well white/clear bottom microtiter plates (Falcon Optilux-I), or 96 well black/clear collagen I cellware plates (Beckton Dickinson Biocoat).
(§1) RPMI 1640 supplemented with 20 mM HEPES, 0.1% BSA (w/v), 0.5 mM PMSF (AEBSF), bacitracin (50 mg/500 ml), pH 7.4.
(§2) Incubations were stopped by the addition of 200 μL of ice-cold binding buffer. Plates were washed three more times with binding buffer, 140 μL of scintillation fluid was added to each well, the plates were sealed and analyzed on a Microβ plate reader (Microbeta Trilux, Perkin-Elmer).
Treatment: BT-474 cells were plated on Day 0 and treated on Days 1 and 2 (DT1, DT2).

[9] = test system: T47D human breast cancer cells; assay: Effect of drug treatment on GRP receptor binding (177Lu-AMBA) in T47D cells; type: cell-based; details: T-47D; relative to untreated control; drug 0.1-1.0 μM (4-OH Tamoxifen 0.001-0.1 μM)
Excerpt: T-47D breast cancer cells (human metastatic mammary gland ductal adenocarcinoma isolated from pleural effusion, ER+, PR+) were obtained from the American Type Culture Collection.

[10] = test system: PC-3 prostate cancer cells; assay: Effect of drug treatment on GRP receptor binding (177Lu-AMBA) in PC-3 cells; type: cell-based, human; details: PC-3; drug 0.1-1.0 μM (4-OH Tamoxifen 0.001-0.1 μM)
Procedure: as §1, §2
PC-3 (human prostate adenocarcinoma, bone metastasis, AR-, ER) were obtained from the American Type Culture Collection. The growth medium for PC-3 cells is RPMI 1640 (10-041-CM, Mediatech, Inc), supplemented with 10% heat inactivated FBS (Hyclone, SH30070.03) and PSF-1× (as in Example LXVI). The binding buffer, lapatinib solutions, treatment method and cell binding assay is the same as in Example LXVI.

NMB-R = molecular target: T1, NMB-R (Rattus norvegicus, UniProt P24053); assay: Competition with 125I-NMB for NMB-R in C6 cells (linker specificity); type: binding, rodent; details: for receptor subtype preference (GRP-R vs NMB-R): from IC50 with 125I-NMB (C6) and 125I-BBN (PC3), cut off 10x the IC50 of [Tyr4]-BBN;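 as to all read-outs here: test cells: rodent glioblastoma C6 line carrying NMB-R, human prostate cancer PC3 line carrying GRP-R, affinity fitted by one-site competition nonlinear regression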
T1 construct: C6, an NMB-R expressing rodent glioblastoma cell line; host or cells: C6 glioblastoma cells, intact adherent cells
T1 sequence (P24053 1-390): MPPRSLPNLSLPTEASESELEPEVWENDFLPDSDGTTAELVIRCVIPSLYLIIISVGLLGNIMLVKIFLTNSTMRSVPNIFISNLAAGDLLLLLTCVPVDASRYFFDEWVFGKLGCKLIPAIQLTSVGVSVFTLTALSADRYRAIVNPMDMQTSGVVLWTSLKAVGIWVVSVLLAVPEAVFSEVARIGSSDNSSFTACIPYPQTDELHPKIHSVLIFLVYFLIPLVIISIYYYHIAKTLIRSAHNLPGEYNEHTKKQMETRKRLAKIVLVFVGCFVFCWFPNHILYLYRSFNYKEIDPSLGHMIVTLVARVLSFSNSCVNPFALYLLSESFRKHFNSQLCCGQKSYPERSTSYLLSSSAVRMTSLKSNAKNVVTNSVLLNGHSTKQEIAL
Procedure: Two cell lines, C6, an NMB-R expressing rodent glioblastoma cell line and PC3, a GRP-R expressing human prostate cancer cell line, were used in this assay. The affinity of various unlabeled compounds for each receptor subtype (NMB-R and GRP-R) was determined indirectly by measuring its ability to compete with the binding of ^125I-NMB or ^125I-BBN to its corresponding receptors in C6 and PC3 cells.
Cells for the assays were plated at a concentration of 9.6×10^4/well in 48 well poly-lysine coated plates (Beckton Dickinson Biocoat). PC3 were obtained from ATCC(CRL-1435) and cultured in RPMI 1640 (ATCC) supplemented with 2 mM L-glutamine, 1.5 g/L Sodium bicarbonate, 10 mM HEPES and 10% FBS. […] PC3 cells for the assays were plated at a concentration of 2.0×10^4 cells/well in 96-well white/clear bottom plates (Falcon Optilux-I). Plates were used for the assays on day 2 of the post-plating.
RPMI 1640 (ATCC) containing 25 mM HEPES, 0.2% BSA fraction V, 1.0 mM AEBSF (CAS # 3087-99-7) and 0.1% Bacitracin (CAS # 1405-87-4), pH 7.4. Custom made ^125I-[Tyr^0]NMB, >2.0 Ci/μmole (Amersham Life Science) [^125I-NMB] and commercially available ^125I-[Tyr^4]BBN, >2.0 Ci/μmole (Perkin Elmer Life Science) [^125I-BBN] were used as radioligands.
Using a 48-well plate assay system (for C6 study) competition experiments were performed using ^125I-NMB. […] Selection of compounds for the assay was based on linker subtype.
The binding parameters obtained from the studies were analyzed using a one-site competition non-linear regression analysis with GraphPad Prism. The relative affinity of various compounds for NMB-R in C6 cells were compared with those obtained using commercially available [Tyr^4]-BBN and [Tyr^0]-NMB. To distinguish the GRP-R preferring compounds from NMB-R plus GRP-R preferring compounds, IC50 values obtained for each compound were compared with those obtained from [Tyr^4-BBN with ^125I-NMB on C6 cells.

[11] = test system: PC3 tumor-bearing nude mice; type: in vivo, mouse
Procedure: In all studies, mice were administered 100 μL of ^177Lu-labeled test compound at 200 μCi/kg, i.v., with a residence time of 1 and 24 h per group (n=3-4). Tissues were analyzed in an LKB 1282 CompuGamma counter with appropriate standards.

PC3 cells = assay: Internalization and efflux assay in PC3 cells; type: cell-based, human; details: 125I-BBN or Lu-177 complexes; for Internalisation (40 minutes): 40 min at 37° C.; for Efflux (2 h): 2 h at 37° C. after 40 min loading
Procedure: These studies were conducted in a 96-well plate. […] Incubations were stopped by the addition of 200 μl of ice-cold binding buffer. Plates were washed twice with binding buffer. To remove surface-bound radioligand, the cells were incubated with 0.2M acetic acid (in saline), pH 2.8 for 2 min. Plates were centrifuged and the acid wash media were collected to determine the amount of radioactivity which was not internalized. The cells were collected to determine the amount of internalized ^125I-BBN, and all samples were analyzed in the gamma counter. Data for the internalization assay was normalized by comparing counts obtained at the various time points with the counts obtained at the final time point (T=40 min).
For the efflux studies, after loading the PC3 cells with ^125I-BBN or radiolabeled compounds of the invention for 40 min at 37° C., the unbound material was filtered, and the % of internalization was determined as above. The cells were then resuspended in binding buffer at 37° C. for up to 3 h.

[12] = test system: PC3 tumor-bearing nude mouse model; assay: Radiotherapy efficacy studies in the PC3 tumor-bearing nude mouse model; type: in vivo; details: 177Lu labeled; for survival, Short Term Efficacy Study: 30 mCi/kg, up to 30 days, vs untreated and DO3A-monoamide-Aoc-QWAVGHLM-NH2 control; for survival, Long Term Efficacy Study: same dose, up to 120 days, vs controls
Procedure: Radiotherapy studies were performed using the PC3 tumor-bearing nude mouse model. […] (n=12 for each treatment group for up to 30 days, and n=36 for the pooled untreated control group for up to 31 days). […] The subjects were housed in a barrier environment for the duration of the study. Body weight and tumor size (by caliper measurement) were collected on each subject 3 times per week for the duration of the study. Criteria for early termination included: death; loss of total body weight (TBW) equal to or greater than 20%; tumor size equal to or greater than 2 cm^3.

[13] = test system: human PC-3 nude mouse model; type: in vivo
Procedure: For biodistribution studies, the radiolabeled compounds were prepared as described above except that a 1:1 molar ratio of ligand to Lutetium was used to guarantee complete chelation of all starting ligand. The HPLC peak containing the resulting ^177Lu complex was collected in 1 mL of 9:1 Bacteriostatic saline/ASCOR L500® solution containing 0.1% HSA, and the organic solvents were removed using a speed-vacuum device. The remaining solution was further diluted to the required radioconcentration using Bacteriostatic saline/ASCOR L500® Ascorbic Acid Injection USP mixed in a 9 to 1 [v/v]) ratio. The radiochemical purity of all samples was […].
10-50 μCi of the HPLC purified compounds were administered to each mouse by i.v. tail vein injection, n=4 per group. […] Radioactivity was assayed in a gamma counter. The data was expressed as percentage of the total administered radioactivity (% ID) for the urine combined with the bladder, as well as for the blood pool; and percentage of the total administered radioactivity per gram (% ID/g) for all the other tested organs.

GRP-R = molecular target: T2, GRP-R (Homo sapiens, UniProt P30550); assay: Competition studies of modified BBN analogs with 125I-BBN for GRP-R in PC3 cells (Example LXI); type: binding
T2 construct: host or cells: PC3 (PC-3) human prostate cancer cells, intact adherent cells
Procedure: PC3 cell lines were obtained from ATCC(CRL-1435) and cultured in RPMI 1640 (ATCC) supplemented with 2 mM L-glutamine, 1.5 g/L Sodium bicarbonate, 10 mM HEPES and 10% FBS. […] PC3 cells for the assays were plated at a concentration of 2.0×10^4 cells/well in a 96-well white/clear bottom plates (Falcon Optilux-I). Plates were used for the assays on day 2 of the post-plating.
^125I-BBN (Cat # NEX258) was obtained from PerkinElmer Life Sciences.
All compounds tested were dissolved in binding buffer and appropriate dilutions were also done in binding buffer. PC3 cells for assay were seeded at a concentration of 2.0×10^4/well either in 96-well black/clear collagen I cellware plates (Beckton Dickinson Biocoat). Plates were used for binding studies on day 2 post-plating. The plates were checked for confluency (>90% confluent) prior to assay. […] The studies were conducted with an assay volume of 75 μL per well. Triplicate wells were used for each data point. After the addition of the appropriate solutions, plates were incubated for 1 hour at 4° C. Incubation was ended by the addition of 200 μL of ice-cold incubation buffer. Plates were washed 5 times and blotted dry. Radioactivity was detected using either a LKB CompuGamma counter or a microplate scintillation counter.

[14] = ZR-75-1, long-term treatment, 100 nM
[15] = 177Lu-labeled, 1 and 24 h, compared with control DO3A-monoamide-Aoc-QWAVGHLM-NH2
[16] = 177Lu-labeled, compared with control DO3A-monoamide-Aoc-QWAVGHLM-NH2

T2 sequence (P30550 whole entry): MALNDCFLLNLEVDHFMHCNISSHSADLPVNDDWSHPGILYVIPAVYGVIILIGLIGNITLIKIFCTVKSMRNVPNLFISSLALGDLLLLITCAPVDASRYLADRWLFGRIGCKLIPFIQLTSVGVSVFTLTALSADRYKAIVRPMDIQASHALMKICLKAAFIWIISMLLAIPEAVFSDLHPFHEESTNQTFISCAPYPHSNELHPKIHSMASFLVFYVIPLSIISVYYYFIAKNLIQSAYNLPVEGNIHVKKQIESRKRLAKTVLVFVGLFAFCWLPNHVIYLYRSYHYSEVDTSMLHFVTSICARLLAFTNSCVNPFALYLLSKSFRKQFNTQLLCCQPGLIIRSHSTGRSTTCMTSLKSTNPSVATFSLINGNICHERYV
Chain of gastrin releasing peptide receptor (GRP-R) (human) (P30550 whole entry): as above
Chain of human neuromedin-B preferring receptor (NMB-R) (human) (P28336 whole entry): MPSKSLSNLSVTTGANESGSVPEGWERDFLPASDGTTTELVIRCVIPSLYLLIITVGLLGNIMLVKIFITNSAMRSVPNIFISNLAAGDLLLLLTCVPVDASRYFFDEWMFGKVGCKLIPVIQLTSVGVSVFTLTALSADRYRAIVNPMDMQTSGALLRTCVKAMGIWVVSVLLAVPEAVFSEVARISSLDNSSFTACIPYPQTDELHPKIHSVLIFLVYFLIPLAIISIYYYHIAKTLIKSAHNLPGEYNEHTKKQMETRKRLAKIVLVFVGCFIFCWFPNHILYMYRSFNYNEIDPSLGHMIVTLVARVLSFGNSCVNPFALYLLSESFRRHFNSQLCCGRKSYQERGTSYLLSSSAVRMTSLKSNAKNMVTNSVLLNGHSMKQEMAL

- Binding capacity (Bmax) (fmoles/1 × 10^6 cells) [1]: 402
- Kd [1]: 0.46 nM
- Receptors/cell (receptors/cell) [1]: 242000
Molecule: 67Ga-AMBA (peptide)

- IC50 [2]: 0.8 nM
- IC50 [3]: 0.9 nM
- EC50 [4]: 1.47 nM
- EC50 [5]: 1.28 nM
Molecule: 175Lu-L70 (peptide)

Molecule: CC/C(=C(\c1ccc(O)cc1)c1ccc(OCCN(C)C)cc1)c1ccccc1 [4-OH Tamoxifen, 4-hydroxytamoxifen]
- inhibition of proliferation ([6]; ZR-75-1, 100 nM, by 12 day): 28%
- 2-NBDG uptake [6, 14]: smaller changes
- 177Lu-AMBA uptake [6, 14]: significant reduction
- decrease in glycolysis (2-NBDG uptake) ([7]; ZR-75-1): ~20%
- change in cell proliferation ([7]; ZR-75-1, 0-0.1 μM): little change
- decrease in 177Lu-AMBA binding (GRP receptor specific signal per cell) [8]: up to 73%
- decrease in 177Lu-AMBA binding (GRP receptor specific signal per cell) [9]: up to 35%
- change in GRP receptor specific signal per cell (177Lu-AMBA binding) [10]: no change

Molecule: CSCC[C@H](NC(=O)[C@H](CC(C)C)NC(=O)[C@H](Cc1c[nH]cn1)NC(=O)CNC(=O)[C@@H](NC(=O)[C@H](C)NC(=O)[C@H](Cc1c[nH]c2ccccc12)NC(=O)[C@H](CCC(N)=O)NC(=O)CC[C@@H](C)[C@H]1CC[C@H]2[C@@H]3CC[C@@H]4C[C@@H](NC(=O)CNC(=O)CN5CCN(CC(=O)O)CCN(CC(=O)O)CCN(CC(=O)O)CC5)CC[C@]4(C)[C@H]3C[C@H](O)[C@]12C)C(C)C)C(N)=O [Compound L63, N-[(3β,5β,12α)-3-[[[[[4,7,10-Tris(carboxymethyl)-1,4,7,10-tetraazacyclododec-1-yl]acetyl]amino]acetyl]amino]-12-hydroxy-24-oxocholan-24-yl]-L-glutaminyl-L-tryptophyl-L-alanyl-L-valyl-glycyl-L-histidyl-L-leucyl-L-methioninamide]
- receptor subtype preference (GRP-R vs NMB-R) (NMB-R): dual affinity for both GRP-R and NMB-R
- uptake in the tumor [11, 15]: high tumor uptake
- distribution of radioactivity in the blood, liver and kidneys [11, 16]: increased blood and liver values at early times
- uptake in the mouse pancreas [11, 16]: much higher
- Internalisation (40 minutes) (PC3 cells): 64%
- Efflux (2 h) (PC3 cells): 0%
- survival, Short Term Efficacy Study [12]: increased survival

Molecule: CSCC[C@H](NC(=O)[C@H](CC(C)C)NC(=O)[C@H](Cc1c[nH]cn1)NC(=O)CNC(=O)[C@@H](NC(=O)[C@H](C)NC(=O)[C@H](Cc1c[nH]c2ccccc12)NC(=O)[C@H](CCC(N)=O)NC(=O)CC[C@@H](C)[C@H]1CC[C@H]2[C@@H]3[C@H](O)C[C@@H]4C[C@@H](NC(=O)CNC(=O)CN5CCN(CC(=O)O)CCN(CC(=O)O)CCN(CC(=O)O)CC5)CC[C@]4(C)[C@H]3C[C@H](O)[C@]12C)C(C)C)C(N)=O [Compound L64, N-[(3β,5β,7α,12α)-3-[[[[[4,7,10-Tris(carboxymethyl)-1,4,7,10-tetraazacyclododec-1-yl]acetyl]amino]acetyl]amino]-7,12-dihydroxy-24-oxocholan-24-yl]-L-glutaminyl-L-tryptophyl-L-alanyl-L-valyl-glycyl-L-histidyl-L-leucyl-L-methioninamide]
- receptor subtype preference (GRP-R vs NMB-R) (NMB-R): dual affinity for both GRP-R and NMB-R
- uptake in the tumor [11, 15]: much higher
- uptake in the mouse pancreas [11, 16]: much higher
- Internalisation (40 minutes) (PC3 cells): 69%
- Efflux (2 h) (PC3 cells): 20%
- survival, Short Term Efficacy Study [12]: increased survival
- survival, Long Term Efficacy Study [12]: significantly increased survival

Molecule: CC1(N(CC(=O)O)CC(=O)O)CN(CC(=O)O)[C@@H]2CCCC[C@H]2N(CC(=O)O)C1 [XX100]
- Blood % ID (7 d column, *72 h timepoint) ([13]; 177Lu complex, i.v., PC-3 nude mouse, 72 h): 0.00 ± 0.00 % ID
- clearance and localization of radioactivity ([13]; Lu-177 complexes, human PC-3 nude mouse model, 1 h, 1 and 7 days): rapidly cleared from the body with little residual localization in any organs or tissue

Molecule: GNLWATGHFM-NH2
- competition at the GRP-R (GRP-R): unable to compete
- competition at NMB-R (NMB-R): effective NMB competitors
- receptor preference in words (GRP-R / GRP-R and NMB-R) (NMB-R; wrapped cell: 'No selective preference' or 'preference for NMB-R'): preference for NMB-R

- EC50 [4]: 1.15 nM
- EC50 [5]: 1 nM
Molecule: Ga-AMBA (non-radioactive) (peptide)

Molecule: N-[4-[[[[[4,7,10-Tris(carboxymethyl)-1,4,7,10-tetraazacyclododec-1-yl]acetyl]amino]acetyl]amino]benzoyl]-L-glutaminyl-L-tryptophyl-L-alanyl-L-valyl-glycyl-L-histidyl-L-leucyl-L-methioninamide [Compound L70]
- receptor subtype preference (GRP-R vs NMB-R) (NMB-R): dual affinity
- uptake in the tumor ([11]; mouse, in vivo): much higher
- Internalisation (40 minutes) (PC3 cells): 70%
- Efflux (2 h) (PC3 cells): 12%
- survival, Short Term Efficacy Study [12]: increased survival
- survival, Long Term Efficacy Study [12]: significantly increased survival

Molecule: N-[(3β,5β,12α)-3-[[[4,7,10-Tris(carboxymethyl)-1,4,7,10-tetraazacyclododec-1-yl]acetyl]amino]-glycyl-4-aminobenzoyl-L-glutaminyl-L-tryptophyl-L-alanyl-glycyl-L-histidyl-L-phenylalanyl-L-leucinamide [Compound L224]
- competition at the GRP-R (GRP-R): complete loss of binding

Molecule: N-[(3β,5β,12α)-3-[[[4,7,10-Tris(carboxymethyl)-1,4,7,10-tetraazacyclododec-1-yl]acetyl]amino]-glycyl-4-aminobenzoyl-L-leucyl-L-tryptophyl-L-alanyl-L-valinyl-glycyl-L-serinyl-L-phenylalanyl-L-methioninamide [Compound L225]
- competition at the GRP-R (GRP-R): reduces competition at the GRP-R

- IC50 [2]: 0.7 nM
- IC50 [3]: 0.8 nM
Molecule: [DTyr6, βAla11, Phe13, Nle14]-BBN(6-14) (peptide)

Molecule: yGNLWATGHFM-NH2
- competition at the GRP-R (GRP-R): unable to compete
- competition at NMB-R (NMB-R): effective NMB competitors
